Measured values from patent US9527859B2, “Amidopyridine derivative and use thereof” (Mitsubishi Tanabe Pharma Corporation, priority 2012, dated 2016).

Molecular target: T1, hERG current in hERG-expressed HEK 293 cells (Homo sapiens, UniProt Q12809)
T1 construct: host or cells: HEK 293 cells, G418-selected
Experiment: Effects on hERG current (whole-cell clamp)
Assay type: cell-based
Conditions: 1 μM of test compound, tail peak current
Method: Dimethylsulfoxide was used as a vehicle, and hERG-expressed HEK 293 cells (Cytomyx) were used as test cells. Test cells were once cultured and subdivided and were stored under frozen condition in liquid nitrogen. In the study, thawed and subcultured cells having less than 30 of the passage number were used. Test cells were cultured in a carbon dioxide gas incubator BNP-110M (Tabai Espec Corp.) at 37±1° C. and 5.0±0.5% of carbon dioxide concentration. The component of culture medium was basically MEM (Minimum Essential Medium) supplemented with 10 vol % fetal bovine serum (non-activated), 1 mmol/L sodium pyruvate, 0.1 mmol/L non-essential amino acid and 100 U/mL penicillin/100 μg/mL streptomycin. To select gene-expressing cells, 400 μg/mL G418 Sulphate (Invitrogen) was added to the culture medium. […] A manufacturer of the culture solution is Invitrogen Corporation.
As to seeding of cells for measurement, subcultured cells which became confluent were treated with 0.25% trypsin-solution containing 1 mmol/L EDTA (Invitrogen) to remove therefrom, and seeded on dishes overlaid with sterilized collagen-coated cover glass (Iwaki, AGC Techno Glass Co., LTD). The medium was exchanged appropriately, including the day of measurement.
A perfusion method was carried out for an application route. Test cells were perfused (perfusion speed: approximately 4 mL/min) with an external solution containing specified concentrations of test compounds (component of external solution: 137 mmol/L of sodium chloride, 4 mmol/L of potassium chloride, 10 mmol/L of HEPES, 1.8 mmol/L of calcium chloride, 1 mmol/L of magnesium chloride and 10 mmol/L of glucose; adjusted to pH 7.4±0.1 with sodium hydroxide solution). When no effects were observed until 4 minutes after switching to a test compound solution, the next different concentration of the test compound was perfused. When effects were observed, the perfusion was continued until the maximum response was observed. The maximum perfusion time for lower concentrations of test compound was set for 10 minutes even when effects were observed. The data were obtained from one experiment or more and the cells which were gently incubated in a carbon dioxide incubator after seeding and attached to cover glasses were used for the measurement.
A whole-cell clamping method was applied to the measurement. Test cells were perfused (perfusion speed: approximately 4 mL/min) with an external solution (component of external solution: 137 mmol/L of sodium chloride, 4 mmol/L of potassium chloride, 10 mmol/L of HEPES, 1.8 mmol/L of calcium chloride, 1 mmol/L of magnesium chloride and 10 mmol/L of glucose; adjusted to pH 7.4±0.1 with sodium hydroxide solution). A glass electrode with a resistance of 2 to 6 MΩ, filled with an internal solution (component: 130 mmol/L of potassium chloride, 1 mmol/L of magnesium chloride, 5 mmol/L of EGTA, 10 mmol/L of HEPES and 5 mmol/L of ATP, adjusted to pH 7.2±0.1 with potassium hydroxide solution) was used. After rupturing cell membrane with glass electrode, the cell membrane voltage was held at −80 mV by using patch clamp amplifier (EPC8, HEKA) via a patch clamp software (pCLAMP9 [Axon CNS], Molecular Devices). As illustrated below, a test pulse of +20 mV for 1.5 seconds and −40 mV for 1.5 seconds was given once every 15 seconds. One minute or more after obtaining 500 pA or higher peak value of the stable tail currents, test compounds were applied. Test cells and the cell-seeded cover glass were changed every treatment. Temperature of the fluid in a perfusion fluid tank was 24±2° C.
The obtained current was recorded on a computer by using a patch clamp software via a patch clamp amplifier. An evaluation item was a tail peak current.
A tail peak current was analyzed using analyzing software (Clampfit 9 [Axon CNS], MolecularDevices). […]

T1 sequence (Q12809 whole entry): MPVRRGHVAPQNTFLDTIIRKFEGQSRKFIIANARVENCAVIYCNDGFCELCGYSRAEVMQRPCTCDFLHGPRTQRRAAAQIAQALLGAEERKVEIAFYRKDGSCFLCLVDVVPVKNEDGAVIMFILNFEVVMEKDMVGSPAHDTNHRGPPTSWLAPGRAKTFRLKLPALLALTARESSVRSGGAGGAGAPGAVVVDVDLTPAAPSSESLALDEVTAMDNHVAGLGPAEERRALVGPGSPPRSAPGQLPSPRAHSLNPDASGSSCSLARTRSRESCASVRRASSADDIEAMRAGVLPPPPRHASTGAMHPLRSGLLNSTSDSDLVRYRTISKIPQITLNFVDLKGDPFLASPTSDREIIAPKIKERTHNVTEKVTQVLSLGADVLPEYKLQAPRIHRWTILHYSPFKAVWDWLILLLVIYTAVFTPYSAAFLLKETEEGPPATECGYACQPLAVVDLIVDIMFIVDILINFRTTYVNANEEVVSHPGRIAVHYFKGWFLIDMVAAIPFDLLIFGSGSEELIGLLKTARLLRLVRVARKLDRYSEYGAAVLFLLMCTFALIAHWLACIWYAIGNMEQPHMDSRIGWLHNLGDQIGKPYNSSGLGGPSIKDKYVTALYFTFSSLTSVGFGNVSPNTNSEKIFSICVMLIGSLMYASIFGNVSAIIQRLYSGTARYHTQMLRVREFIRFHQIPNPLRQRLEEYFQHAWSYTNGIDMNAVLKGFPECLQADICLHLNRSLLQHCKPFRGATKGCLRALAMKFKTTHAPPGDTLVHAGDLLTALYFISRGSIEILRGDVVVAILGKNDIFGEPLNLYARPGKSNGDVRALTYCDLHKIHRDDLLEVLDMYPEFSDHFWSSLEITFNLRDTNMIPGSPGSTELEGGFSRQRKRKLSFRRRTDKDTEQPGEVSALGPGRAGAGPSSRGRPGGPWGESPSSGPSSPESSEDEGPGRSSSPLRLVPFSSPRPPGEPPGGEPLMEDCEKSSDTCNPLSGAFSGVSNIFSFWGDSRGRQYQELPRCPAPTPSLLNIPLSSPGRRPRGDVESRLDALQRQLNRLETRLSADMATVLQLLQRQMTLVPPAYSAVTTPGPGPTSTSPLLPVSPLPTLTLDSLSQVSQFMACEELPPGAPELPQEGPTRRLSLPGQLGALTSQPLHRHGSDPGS

Row | Compound | Inhibition ratio (%)
1 | Cc1c(C(=O)Nc2cnc(N3CCC(O)CC3)c(C3CC3)c2)cnn1-c1ccc(Cl)cc1 [Example 39, 1-(4-chlorophenyl)-N-[5-cyclopropyl-6-(4-hydroxypiperidin-1-yl)pyridin-3-yl]-5-methyl-1H-pyrazole-4-carboxamide] | 8.1%
2 | Cc1cc(NC(=O)c2cnn(-c3ccc(Cl)cc3)c2C)cnc1N1CCC(O)CC1 [Example 43, 1-(4-chlorophenyl)-N-[6-(4-hydroxypiperidin-1-yl)-5-methylpyridin-3-yl]-5-methyl-1H-pyrazole-4-carboxamide] | 9.4%
3 | Cc1cc(NC(=O)c2cnn(-c3ccc(C(F)(F)F)cc3)c2C)cnc1N1CCC(C(C)(C)F)CC1 [Example 47, N-{6-[4-(1-fluoro-1-methylethyl)piperidin-1-yl]-5-methylpyridin-3-yl}-5-methyl-1-[4-(trifluoromethyl)phenyl]-1H-pyrazole-4-carboxamide] | 32.7%
4 | Cc1c(C(=O)Nc2cnc(N3CCC(O)CC3)c(C#N)c2)cnn1-c1ccc(C(F)(F)F)cc1 [Example 45, N-[5-cyano-6-(4-hydroxypiperidin-1-yl)pyridin-3-yl]-5-methyl-1-[4-(trifluoromethyl)phenyl]-1H-pyrazole-4-carboxamide] | 4.2%
5 | Cc1cc(NC(=O)c2cnn(-c3ccc(C(F)(F)F)cn3)c2C)cnc1N1CCC(C(C)(C)F)CC1 [Example 49, N-{6-[4-(1-fluoro-1-methylethyl)piperidin-1-yl]-5-methylpyridin-3-yl}-5-methyl-1-[5-(trifluoromethyl)pyridin-2-yl]-1H-pyrazole-4-carboxamide] | 40.5%
6 | Cc1c(C(=O)Nc2cnc(N3CCC(O)CC3)c(C#N)c2)cnn1-c1ccc(Cl)cc1 [Example 44, 1-(4-chlorophenyl)-N-[5-cyano-6-(4-hydroxypiperidin-1-yl)pyridin-3-yl]-5-methyl-1H-pyrazole-4-carboxamide] | 2%
